Assay results as given in paper PMC5976192, “Design of a glutamine substrate tag enabling protein labelling mediated by Bacillus subtilis transglutaminase” (PLoS ONE, 2018).

Target: T1, bTG (Bacillus subtilis transglutaminase) (Bacillus subtilis, UniProt P40746)
T1 construct: gene tgl; recombinant, expressed in E. coli in active form and purified; about 28 kDa; construct details only in S1 File
T1 sequence (P40746 1-245): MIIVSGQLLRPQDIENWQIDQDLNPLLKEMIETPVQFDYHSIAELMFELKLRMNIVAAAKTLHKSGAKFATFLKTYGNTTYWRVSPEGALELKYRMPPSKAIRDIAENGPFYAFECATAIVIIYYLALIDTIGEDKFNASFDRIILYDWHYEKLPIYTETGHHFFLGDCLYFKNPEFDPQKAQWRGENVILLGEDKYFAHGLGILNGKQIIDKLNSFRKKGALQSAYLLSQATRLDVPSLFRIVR
Experiment: GDH-coupled assay; fluorescent labelling on SDS-PAGE
Type: biochemical
Conditions: acyl acceptor at 5 mM; 0.8 μM Q-tagged mRuby2 as acyl donor; 0.1 U bTG; 20 min; gel labelling 3 h at 37 °C; initial rates only

CN(C)c1cccc2c(S(=O)(=O)NCCCCCN)cccc12 [dansyl-cadaverine]
GDH-coupled assay; fluorescent labelling on SDS-PAGE: initial rates of transamidation between Q-tagged mRuby2 and dansyl-cadaverine were measured using the GDH-coupled assay
